# From US20040019429A1, “Methods and systems for analyzing complex biological systems” (priority 2001, published 2004)
# “Also recorded” adds a separate entry of the source.
# Key:
# [1] = tested on: Arabidopsis thaliana plants; test: SOA1 phenotypic analysis of herbicide-treated plants (MIC, Tmic, leaf traits, symptom class); assay type: in vivo; details: for leafCurling (Dev.) / leafTwisting (Dev.) / leafWidth (Dev.) / matureLeafAnthocyanins (Dev.) / matureLeafChlorosis (Dev.) / matureLeafNecrosis (Dev.) / newLeafAnthocyanins (Dev.) / newLeafChlorosis (Dev.) / newLeafNecrosis (Dev.) / pointedLeaves (Dev.): numeric value standardized to mock treated plants; for leafCurling (Dev.) / leafTwisting (Dev.) / leafWidth (Dev.) / matureLeafAnthocyanins (Dev.) / matureLeafChlorosis (Dev.) / matureLeafNecrosis (Dev.) / newLeafAnthocyanins (Dev.) / newLeafChlorosis (Dev.) / newLeafNecrosis (Dev.) / pointedLeaves (Dev.) / tMic (Dev.): SOA1; for tMic (Dev.): score for time to full range of symptoms at the MIC; for Characteristic symptoms of treated plants (in words): SOA1 phenotypic analysis
# Arabidopsis thaliana [2] = test: MOA1 gene expression profiling (arrays of 22,000 Arabidopsis genes); details: for Gene expression perturbation (in words): MOA1, one-hour time point; for No. of Lethal Genes Altered: altered genes identified as essential for plant growth in internal database
# [3] = tested on: Saccharomyces cerevisiae wild type strain BY4743; test: AF1 yeast metabolite analysis by GC-MS and LC-MS after antifungal drug treatment; assay type: cell-based; details: for Fold Change, phosphoenolpyruvate: metabolite phosphoenolpyruvate; for Fold Change, thymine: metabolite thymine; for Fold Change, urocanic acid: metabolite urocanic acid; for Fold Change, zeatin: metabolite zeatin
# Arabidopsis thaliana [4] = test: MOA1 biochemical (metabolite) profiling by LC-MS and GC-MS; details: 20 minutes and 1 hour after spraying
# Magnaporthe grisea = assay type: cell-based
# [5] = 1 hr, p < 0.5, number of genes of 22,000
smiles,measurement,setting,value
"O=C(O)COc1ccc(Cl)cc1Cl [2,4-D]",leafCurling (Dev.),[1],1
same,leafTwisting (Dev.),[1],2
same,leafWidth (Dev.),[1],−1
same,matureLeafAnthocyanins (Dev.),[1],1
same,matureLeafChlorosis (Dev.),[1],2
same,matureLeafNecrosis (Dev.),[1],0
same,newLeafAnthocyanins (Dev.),[1],0
same,newLeafChlorosis (Dev.),[1],1
same,newLeafNecrosis (Dev.),[1],0
same,pointedLeaves (Dev.),[1],0
same,tMic (Dev.),[1],2
same,Symptom Class,[1]; three-week-old Arabidopsis plants treated with herbicide,5
O=C(O)c1cc(Oc2ccc(C(F)(F)F)cc2Cl)ccc1[N+](=O)[O-] [Acifluorfen],Characteristic symptoms of treated plants (in words),[1],Necrotic leaf flecks
COC(=O)NS(=O)(=O)c1ccc(N)cc1 [Asulam],Gene expression perturbation (in words),Arabidopsis thaliana [2],fewest gene expression perturbations
same,No. of Lethal Genes Altered,Arabidopsis thaliana [2]; 1 hr,5
CCNc1nc(Cl)nc(NC(C)C)n1 [Atrazine],Characteristic symptoms of treated plants (in words),[1],rapid and widespread leaf necrosis
CC(C)N1C(=O)c2ccccc2NS1(=O)=O [Bentazon],Characteristic symptoms of treated plants (in words),[1],rapid and widespread leaf necrosis
COC(=O)c1cc(Oc2ccc(Cl)cc2Cl)ccc1[N+](=O)[O-] [Bifenox],Characteristic symptoms of treated plants (in words),[1],Necrotic leaf flecks
COc1nc(C)nc(NC(=O)NS(=O)(=O)c2ccccc2Cl)n1 [Chlorsulfuron],Characteristic symptoms of treated plants (in words),[1],anthocyanin accumulation in the older leaves accompanied by chlorosis of the newly emerging leaves
same,No. of Lethal Genes Altered,Arabidopsis thaliana [2]; 1 hr,8
c1cc[n+]2c(c1)-c1cccc[n+]1CC2 [Diquat],Characteristic symptoms of treated plants (in words),[1],rapid and widespread leaf necrosis
same,leafCurling (Dev.),[1],2
same,leafTwisting (Dev.),[1],0
same,leafWidth (Dev.),[1],−2
same,matureLeafAnthocyanins (Dev.),[1],0
same,matureLeafChlorosis (Dev.),[1],1
same,matureLeafNecrosis (Dev.),[1],4
same,newLeafAnthocyanins (Dev.),[1],0
same,newLeafChlorosis (Dev.),[1],1
same,newLeafNecrosis (Dev.),[1],4
same,pointedLeaves (Dev.),[1],1
same,tMic (Dev.),[1],2
CN(C)C(=O)Nc1ccc(Cl)c(Cl)c1 [Diuron],Characteristic symptoms of treated plants (in words),[1],rapid and widespread leaf necrosis
same,leafCurling (Dev.),[1],1
same,leafTwisting (Dev.),[1],0
same,leafWidth (Dev.),[1],−2
same,matureLeafAnthocyanins (Dev.),[1],0
same,matureLeafChlorosis (Dev.),[1],2
same,matureLeafNecrosis (Dev.),[1],4
same,newLeafAnthocyanins (Dev.),[1],newLeafAnthocyanins 0
same,newLeafChlorosis (Dev.),[1],2
same,newLeafNecrosis (Dev.),[1],4
same,pointedLeaves (Dev.),[1],1
same,tMic (Dev.),[1],1
OC(Cn1cncn1)(Cn1cncn1)c1ccc(F)cc1F [Fluconazole],"Fold Change, abscisic acid",[3]; platform LC,0
same,"Fold Change, adenosine",[3]; platform LC,0
O=C(O)CNCP(=O)(O)O [Glyphosate],Characteristic symptoms of treated plants (in words),[1],anthocyanin accumulation in the older leaves accompanied by chlorosis of the newly emerging leaves
same,leafCurling (Dev.),[1],0
same,leafTwisting (Dev.),[1],0
same,leafWidth (Dev.),[1],0
same,matureLeafAnthocyanins (Dev.),[1],3
same,matureLeafChlorosis (Dev.),[1],1
same,matureLeafNecrosis (Dev.),[1],3
same,newLeafAnthocyanins (Dev.),[1],1
same,newLeafChlorosis (Dev.),[1],2
same,newLeafNecrosis (Dev.),[1],0
same,pointedLeaves (Dev.),[1],1
same,tMic (Dev.),[1],2
same,Regulated metabolites relative to control (in words),Arabidopsis thaliana [4],"(tyrosine), decreased relative to the control after one hour"
same,"Growth of M. grisea on various nitrogen sources, Tier 4",Magnaporthe grisea,"inhibited growth of M. grisea when nitrate, nitrite, or glutamate was provided as the sole nitrogen source; also recorded: Little growth defect was observed when ammonium or glutamine was provided"
same,Growth results for Tiers 3 and 4,Magnaporthe grisea; 250 μg/ml,nearly identical as compared to Unknown 4
same,Growth inhibition of M. grisea and its remediation,Magnaporthe grisea; 1.0 mg/ml,remediated by inclusion of aromatic amino acids to the media
CC(C)C1(C)N=C(c2ncccc2C(=O)O)NC1=O (centres unmarked) [Imazapyr],Characteristic symptoms of treated plants (in words),[1],anthocyanin accumulation in the older leaves accompanied by chlorosis of the newly emerging leaves
same,Regulated metabolites relative to control (in words),Arabidopsis thaliana [4],"Only a few, if any, stress-related metabolites were observed"
CCc1cnc(C2=NC(C)(C(C)C)C(=O)N2)c(C(=O)O)c1 (centres unmarked) [Imazethapyr],Characteristic symptoms of treated plants (in words),[1],anthocyanin accumulation in the older leaves accompanied by chlorosis of the newly emerging leaves
CS(=O)(=O)c1cc(C(F)(F)F)ccc1C(=O)c1cnoc1C1CC1 [Isoxaflutole],Regulated metabolites relative to control (in words),Arabidopsis thaliana [4],"both tyrosine and phenylalanine were up-regulated relative to the control; also recorded: Alpha-tocopherol was detected, but the levels were not significantly changed relative to the control at the early time points; also recorded: (tyrosine and phenylalanine), began to accumulate relative to the control after one hour"
same,Gene expression perturbation (in words),Arabidopsis thaliana [2],alterations in the expression of genes involved in the homogentisate biosynthetic pathway were not observed
same,No. of Lethal Genes Altered,Arabidopsis thaliana [2]; 1 hr,15
same,"Growth of M. grisea at a sub-inhibitory concentration (minimal, supplemented, minimal plus tyrosine media)",Magnaporthe grisea; concentration insufficient to inhibit growth,"growth was inhibited in minimal plus tyrosine media, while growth in minimal media was unaffected"
CC(=O)N1CCN(c2ccc(OCC3COC(Cn4ccnc4)(c4ccc(Cl)cc4Cl)O3)cc2)CC1 (centres unmarked) [Ketoconazole],# Compounds perturbed by treatment,"[3]; P < 0.1, 2X MIC, two hours",15
CSc1nnc(C(C)(C)C)c(=O)n1N [Metribuzin],Characteristic symptoms of treated plants (in words),[1],rapid and widespread leaf necrosis
O=C(O)c1ccccc1C(=O)Nc1cccc2ccccc12 [Naptalam],Regulated Genes Following Herbicide Treatment: Down,Arabidopsis thaliana [2]; [5],47
same,Regulated Genes Following Herbicide Treatment: Up,Arabidopsis thaliana [2]; [5],50
same,Gene expression perturbation (in words),Arabidopsis thaliana [2],fewest gene expression perturbations
same,No. of Lethal Genes Altered,Arabidopsis thaliana [2]; 1 hr,3
"CNc1cnn(-c2cccc(C(F)(F)F)c2)c(=O)c1Cl [Norfluazon, Norflurazon]",Regulated metabolites relative to control (in words),Arabidopsis thaliana [4],"Only a few, if any, stress-related metabolites were observed"
C[n+]1ccc(-c2cc[n+](C)cc2)cc1 [Paraquat],Characteristic symptoms of treated plants (in words),[1],rapid and widespread leaf necrosis
same,leafCurling (Dev.),[1],2
same,leafTwisting (Dev.),[1],0
same,leafWidth (Dev.),[1],−1
same,matureLeafAnthocyanins (Dev.),[1],0
same,matureLeafChlorosis (Dev.),[1],1
same,matureLeafNecrosis (Dev.),[1],4
same,newLeafAnthocyanins (Dev.),[1],0
same,newLeafChlorosis (Dev.),[1],1
same,newLeafNecrosis (Dev.),[1],4
same,pointedLeaves (Dev.),[1],1
same,tMic (Dev.),[1],2
CC[C@@H]([C@H](C)O)n1ncn(-c2ccc(N3CCN(c4ccc(OC[C@@H]5CO[C@@](Cn6cncn6)(c6ccc(F)cc6F)C5)cc4)CC3)cc2)c1=O [Posaconazole],"Fold Change, NacetylDglucosamine","[3]; metabolite NacetylDglucosamine, platform nLC, p-Value 1",0
same,"Fold Change, NacetylLglucosamine","[3]; metabolite NacetylLglucosamine, platform pLC, p-Value 1",0
same,"Fold Change, NacetylLglutamate","[3]; metabolite NacetylLglutamate, platform pLC, p-Value 1",0
same,"Fold Change, NacetylLornithine","[3]; metabolite NacetylLornithine, platform nLC, p-Value 1",0
same,"Fold Change, niacinamide","[3]; metabolite niacinamide, platform pLC, p-Value 1",0
same,"Fold Change, nopaline","[3]; metabolite nopaline, platform pLC, p-Value 1",0
same,"Fold Change, ornithine3","[3]; metabolite ornithine3, platform GC, p-Value 0.965157424",0.041
same,"Fold Change, orotic acid","[3]; metabolite orotic acid, platform nLC, p-Value 1",0
same,"Fold Change, phenylpyruvic acid","[3]; metabolite phenylpyruvic acid, platform nLC, p-Value 1",0
same,"Fold Change, phosphoenolpyruvate","[3]; platform LC, p-Value 1",0
same,"Fold Change, phosphoenolpyruvate","[3]; platform nLC, p-Value 1",0
same,"Fold Change, pinitol","[3]; metabolite pinitol, platform nLC, p-Value 1",0
same,"Fold Change, progesterone","[3]; metabolite progesterone, platform pLC, p-Value 1",0
same,"Fold Change, retinoic acid","[3]; metabolite retinoic acid, platform nLC, p-Value 1",0
same,"Fold Change, riboflavin","[3]; metabolite riboflavin, platform pLC, p-Value 1",0
same,"Fold Change, salicylic/HObenzoic","[3]; metabolite salicylic/HObenzoic, platform nLC, p-Value 1",0
same,"Fold Change, shikimic acid","[3]; metabolite shikimic acid, platform nLC, p-Value 1",0
same,"Fold Change, sinapinic acid","[3]; metabolite sinapinic acid, platform nLC, p-Value 1",0
same,"Fold Change, sugar-phosphate","[3]; metabolite sugar-phosphate, platform pLC, p-Value 1",0
same,"Fold Change, thiamine","[3]; metabolite thiamine, platform pLC, p-Value 1",0
same,"Fold Change, thymine","[3]; platform nLC, p-Value 1",0
same,"Fold Change, thymine","[3]; platform pLC, p-Value 1",0
same,"Fold Change, tryptophan","[3]; metabolite tryptophan, platform pLC, p-Value 1",0
same,"Fold Change, uric acid","[3]; metabolite uric acid, platform pLC, p-Value 1",0
same,"Fold Change, urocanic acid","[3]; platform nLC, p-Value 1",0
same,"Fold Change, urocanic acid","[3]; platform pLC, p-Value 1",0
same,"Fold Change, xanthosine(diH2O)","[3]; metabolite xanthosine(diH2O), platform pLC, p-Value 1",0
same,"Fold Change, xanthosineDiH2O","[3]; metabolite xanthosineDiH2O, platform nLC, p-Value 1",0
same,"Fold Change, zeatin","[3]; platform nLC, p-Value 1",0
same,"Fold Change, zeatin","[3]; platform pLC, p-Value 1",0
CC[C@@H]([C@H](C)O)n1ncn(-c2ccc(N3CCN(c4ccc(OC[C@@H]5CO[C@@](Cn6cncn6)(c6ccc(F)cc6F)C5)cc4)CC3)cc2)c1=O [Posaconazote],"Fold Change, porphobilinogen","[3]; metabolite porphobilinogen, platform nLC, p-Value 1",0
